These results are taken from patent publication US10023592B2, “Bromodomain inhibitors” (Celgene Quanticel Research, Inc., priority 2013, dated 2018).

As a reminder, the IC50 is the concentration needed to halve the response being measured.

Counter-ions that a name gives are not always drawn.

One test relates to Raji, human Burkitts lymphoma cells. Description: Cell-MTS proliferation assay, Raji. As to conditions: Homo sapiens; Cell-MTS proliferation, Raji cells, 168 hr. It is filed as cell-based. On the procedure:
The Cell-MTS assay is a 7-day plate-based colorimetric assay which quantifies the amount of newly generated NADH in the presence or absence of test compound. The NADH level is used for the quantification of cancer cell proliferation.
Established cancer cell lines with a variety of driving mutations were obtained from American Type Culture Collection (ATCC) and routinely passaged according to ATCC protocols. For routine assay, these cells were seeded at densities which enabled ˜90% confluence after 7 days of culture. Raji, human Burkitts lymphoma cells, (cMYC) were seeded at 15,000 cells per 96-well. HL-60, human proleukemia cells, (NRAS, p16, p53, c-Myc amplified) were seeded at 5,000 cells per 96-well. NCI-H460, human non-small cell lung cancer cells, (KRAS, PIK3CA, STLK11, p16) were seeded at 3,000 cells per 96-well. 24 hr after plating, cells received an 11-point dilution of test compound with final concentration ranges from 100 μM to 2.0 nM. […] At the end of this incubation period, 80 μL of media is removed and 20 μL of CellTiter 96® AQueous Non-Radioactive Cell Proliferation Assay soln (Promega) was added. The cells were incubated until the OD490 was >0.6. IC50 values were calculated using the IDBS XLfit software package and include background subtracted OD490 values and normalization to DMSO controls. Cellular proliferation IC50 values were uploaded and archived using the Chem Biography Platform.
Consider `CCS(=O)(=O)Nc1cc2c(c(-c3cc(C)c(=O)n(C)c3)c1)OC(C1CC1)C2` (stereo not drawn) [Example 496, N-[2-cyclopropyl-7-(1,5-dimethyl-6-oxopyridin-3-yl)-2,3-dihydro-1-benzofuran-5-yl]ethanesulfonamide], for which the IC50 is less than 500 nM.

A further test deals with BRD4(BD1) (Homo sapiens (Human), UniProt O60885). The test is described as follows: In vitro enzyme inhibition assay (BRD4 AlphaScreen). The format is binding. The following applies: class symbols A/B/C. The gist of the method:
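His-tagged BRD4 tested by AlphaScreen for binding of biotinylated H4K5/8/12/16-tetraacetyl peptide. After 20 min at room temperature, streptavidin donor and nickel chelate acceptor beads added (5 μg/mL final each). IC50 determined.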
On to `CCS(=O)(=O)c1ccc(O)c(-c2cn(C)c(=O)c3ccc(-c4cnn(C)c4)cc23)c1` [Example 80, 4-(5-ethylsulfonyl-2-hydroxyphenyl)-2-methyl-6-(1-methylpyrazol-4-yl) isoquinolin-1-one], for which the IC50 is less than 500 nM.
As to `Cn1cc(-c2cccc(S(N)(=O)=O)c2)c2ccncc2c1=O` [Example 55, 3-(2-methyl-1-oxo-2,7-naphthyridin-4-yl) benzenesulfonamide], the IC50 was more than 5000 nM.
With `Cn1cc(-c2cccc(S(C)(=O)=O)c2)cc(N)c1=O` [Example 107, 3-amino-1-methyl-5-(3-methylsulfonylphenyl)pyridin-2-one], the IC50 was more than 5000 nM.
Regarding `COc1ccc(-c2cn(C)c(=O)c3cnccc23)cc1S(N)(=O)=O` [Example 56, 2-methoxy-5-(2-methyl-1-oxo-2,7-naphthyridin-4-yl) benzenesulfonamide], the half-inhibitory concentration (IC50) is more than 5000 nM.
`CNc1cccc(-c2cn(C)c(=O)c3ccccc23)c1` [Example 32, 2-methyl-4-[3-(methylamino)phenyl]isoquinolin-1-one Hydrochloride] had an IC50 of 500 to 5000 nM.
The molecule `Cc1cc(=O)n(C)cc1-c1cccc(NS(C)(=O)=O)c1` [Example 95, N-[3-(1,4-dimethyl-6-oxopyridin-3-yl)phenyl]methanesulfonamide] came in with an IC50 of 500 to 5000 nM.
As to `Cc1cc(-c2cccc(NS(C)(=O)=O)c2)cn(C)c1=O` [Example 96, N-[3-(1,5-dimethyl-6-oxopyridin-3-yl)phenyl]methanesulfonamide], the IC50 is 500 to 5000 nM.
Molecule `CCNc1cc(-c2ccc(OC)c(NS(C)(=O)=O)c2)cn(C)c1=O` [Example 111, N-[5-[5-(ethylamino)-1-methyl-6-oxopyridin-3-yl]-2-methoxyphenyl]methanesulfonamide] had an IC50 of 500 to 5000 nM.
In the case of `Cn1cc(-c2cccc(S(=O)(=O)N3CCOCC3)c2)c2ccccc2c1=O` [Example 14, 2-methyl-4-(3-morpholin-4-yl-sulfonylphenyl) isoquinolin-1-one], the IC50 lay within 500 to 5000 nM.

Still in this test, the particulars now being: in vitro enzyme inhibition assay.
As to `CCS(=O)(=O)Nc1cc2c(c(-c3cc(C)c(=O)n(C)c3)c1)OC(C1CC1)C2` (stereo not drawn) [Example 496, N-[2-cyclopropyl-7-(1,5-dimethyl-6-oxopyridin-3-yl)-2,3-dihydro-1-benzofuran-5-yl]ethanesulfonamide], the IC50 is less than 500 nM.
Molecule `CCc1cnc(NS(=O)(=O)CC)nc1-c1cn(C)c(=O)c2ccccc12` [Example 300, N-[5-ethyl-4-(2-methyl-1-oxoisoquinolin-4-yl)pyrimidin-2-yl]ethanesulfonamide] returned an IC50 of less than 500 nM.
Still for that read-out and setting: next, `CCS(=O)(=O)c1ccc(OCC2CC2)c(-c2cc(NC)c(=O)n(C)c2)c1` [Example 409, 5-[2-(cyclopropylmethoxy)-5-ethylsulfonylphenyl]-1-methyl-3-(methylamino)pyridin-2-one]: less than 500 nM.
The same measure, in the same setting: the value for `CCCc1cnc(NS(=O)(=O)CC)nc1-c1ccc(=O)n(C)c1` [Example 357, N-[4-(1-methyl-6-oxopyridin-3-yl)-5-propylpyrimidin-2-yl]ethanesulfonamide] was less than 500 nM; that for `CC(C)c1cc(-c2nc(S(C)(=O)=O)ncc2Oc2ccc(F)cc2F)cn(C)c1=O` [Example 273, 5-[5-(2,4-difluorophenoxy)-2-methylsulfonylpyrimidin-4-yl]-1-methyl-3-propan-2-ylpyridin-2-one] was 500 to 5000 nM.
`Cc1cc(-c2cc(OCC3(C)COC3)cc(S(C)(=O)=O)c2)cn(C)c1=O` [Example 329, 1,3-dimethyl-5-[3-[(3-methyloxetan-3-yl)methoxy]-5-methylsulfonylphenyl]pyridin-2-one] registered an IC50 of less than 500 nM.
Consider `Cc1cc(-c2cc(OCC(F)(F)F)cc(S(C)(=O)=O)c2)cn(C)c1=O` [Example 328, 1,3-dimethyl-5-[3-methylsulfonyl-5-(2,2,2-trifluoroethoxy)phenyl]pyridin-2-one], for which the IC50 is less than 500 nM.
In the case of `CCCCc1ccc(S(C)(=O)=O)cc1-c1ccc(=O)n(C)c1` [Example 317, 5-(2-butyl-5-methylsulfonylphenyl)-1-methylpyridin-2-one], the IC50 is less than 500 nM.
Turning to `CCC1CCc2cc(NS(=O)(=O)CC)cc(-c3cc(C)c(=O)n(C)c3)c2O1` (stereo not drawn) [Example 492, N-[8-(1,5-dimethyl-6-oxopyridin-3-yl)-2-ethyl-3,4-dihydro-2H-chromen-6-yl] ethanesulfonamide], the IC50 was less than 500 nM.
On to `Cn1cc(-c2cc(NS(C)(=O)=O)ccc2Oc2ccc(F)cc2F)c2c(c1=O)CCC2` [Example 506, N-[4-(2,4-difluorophenoxy)-3-(2-methyl-1-oxo-6,7-dihydro-5H-cyclopenta[c]pyridin-4-yl)phenyl]methanesulfonamide], for which the IC50 is less than 500 nM.
In the case of `C#Cc1cc(-c2cc(S(C)(=O)=O)ccc2OCC2CC2)cn(C)c1=O` [Example 285, 5-[2-(cyclopropylmethoxy)-5-methylsulfonylphenyl]-3-ethynyl-1-methylpyridin-2-one], the IC50 lay in the range of 500 to 5000 nM.
`CCS(=O)(=O)c1ccc(NCC2CC2)c(-c2cn(C)c(=O)c3cncn23)c1` [Example 375, 5-[2-(cyclopropylmethylamino)-5-ethylsulfonylphenyl]-7-methylimidazo[1,5-a]pyrazin-8-one] came in with an IC50 of less than 500 nM.
In turn, `CCc1ccccc1-c1sc(NS(=O)(=O)CC)cc1-c1ccc(=O)n(C)c1` [Example 435, N-[5-(2-ethylphenyl)-4-(1-methyl-6-oxopyridin-3-yl)thiophen-2-yl] ethanesulfonamide] returned an IC50 of more than 5000 nM.
Molecule `CCCCc1cnc(S(C)(=O)=O)nc1-c1cn(C)c(=O)c2ccccc12` [Example 304, 4-(5-butyl-2-methylsulfonyl-pyrimidin-4-yl)-2-methylisoquinolin-1-one] showed an IC50 of less than 500 nM.
The molecule `Cc1cc(-c2cc(OCc3cccnc3)cc(S(C)(=O)=O)c2)cn(C)c1=O` [Example 338, 1,3-dimethyl-5-[3-methylsulfonyl-5-(pyridin-3-ylmethoxy)phenyl]pyridin-2-one] displayed an IC50 of less than 500 nM.
Consider `CCc1ccc(S(C)(=O)=O)cc1-c1cn(C)c(=O)c2ccccc12` [Example 316, 4-(2-ethyl-5-methylsulfonylphenyl)-2-methylisoquinolin-1-one], for which the IC50 is less than 500 nM.
`CCS(=O)(=O)c1ccc(Oc2ccc(F)cc2F)c(-c2cc(C(F)(F)F)c(=O)n(C)c2)c1` [Example 392, 5-[2-(2,4-difluorophenoxy)-5-ethylsulfonylphenyl]-1-methyl-3-(trifluoromethyl)pyridin-2-one] came in with an IC50 of 500 to 5000 nM.
On the same count and under the same terms, the value for `Cn1cc(-c2cc(S(C)(=O)=O)ccc2CCC2CC2)c2ccccc2c1=O` [Example 319, 4-[2-(2-cyclopropylethyl)-5-methylsulfonylphenyl]-2-methylisoquinolin-1-one] was less than 500 nM; that for `CCS(=O)(=O)Nc1ccc(Oc2ccc(F)cc2F)c(-c2cc(NC)c(=O)n(C)c2)c1` [Example 410, N-[4-(2,4-difluorophenoxy)-3-[1-methyl-5-(methylamino)-6-oxopyridin-3-yl]phenyl]ethanesulfonamide] was less than 500 nM; that for `CCS(=O)(=O)c1ccc(Oc2ccc(F)cc2F)c(-c2cn(C)c(=O)c3cncnc23)c1` [Example 234, 8-[2-(2,4-difluorophenoxy)-5-ethylsulfonylphenyl]-6-methylpyrido[4,3-d]pyrimidin-5-one] was 500 to 5000 nM.
The molecule `CCCCc1ccc(S(C)(=O)=O)cc1-c1cn(C)c(=O)c2ccccc12` [Example 318, 4-(2-butyl-5-methylsulfonylphenyl)-2-methylisoquinolin-1-one] came in with an IC50 of less than 500 nM.
`Cn1cc(-c2nc(S(C)(=O)=O)ncc2Oc2ccc(F)cc2F)c2ccccc2c1=O` [Example 151, 4-[5-(2,4-difluorophenoxy)-2-methylsulfonylpyrimidin-4-yl]-2-methylisoquinolin-1-one]: the IC50 is less than 500 nM.
With `Cc1cc(-c2cc(S(C)(=O)=O)cc3c2OCCO3)cn(C)c1=O` [Example 489, 1,3-dimethyl-5-(7-methylsulfonyl-2,3-dihydro-1,4-benzodioxin-5-yl)pyridin-2-one], the IC50 is 500 to 5000 nM.
Same read-out and setting: next, `Cc1cc(-c2cc(S(C)(=O)=O)ccc2NC2CCOC2)cn(C)c1=O` (stereo not drawn) [Example 425, 1,3-dimethyl-5-[5-methylsulfonyl-2-(oxolan-3-ylamino)phenyl]pyridin-2-one]: less than 500 nM; `CCS(=O)(=O)Nc1ccc(Oc2ccc(F)cc2F)c(-c2cn(C)c(=O)c3c2CNCC3)c1` [Example 142, N-[4-(2,4-difluorophenoxy)-3-(2-methyl-1-oxo-5,6,7,8-tetrahydro-2,6-naphthyridin-4-yl)phenyl]ethanesulfonamide]: 500 to 5000 nM; `CCOc1ccc(S(=O)(=O)CC)cc1-c1cn(C)c(=O)cc1C` [Example 458, 5-(2-ethoxy-5-ethylsulfonylphenyl)-1,4-dimethylpyridin-2-one]: less than 500 nM.
